Laboratory results as given in patent US11000033B2, “Ketone or oxime compound, and herbicide” (NISSAN CHEMICAL CORPORATION, priority 2014, dated 2021).

Assays:
Assay type in all cases: in vivo
[1] = system: Echinochloa oryzacola Vasing.; experiment: Test Example 2: herbicidal activity, application during weed generation in submerged conditions (symbol A); settings: Table 23; application herbicide amount 320 g/ha; grade 0-5 by criteria of Test Example 1
How it was run: (§1)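 Submerged alluvial soil (4 cm) sown with mixed seed; greenhouse 25–30° C. 1–2 leaf: diluted emulsion onto water surface, preset dose. Visual score, 3 wk.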

[2] = system: Monochoria vaginalis; experiment: Test Example 2: herbicidal activity, application during weed generation in submerged conditions (symbol C); settings: Table 23; application herbicide amount 320 g/ha; grade 0-5 by criteria of Test Example 1
How it was run: as §1

[3] = system: Echinochloa crus-galli var. crus-galli; experiment: Test Example 3: herbicidal effect by foliage application, Wagner pot (symbol H); settings: application herbicide amount 320 g/ha
How it was run: (§2)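 Steps: fill pot with alluvial soil; add water to 0.1–0.5 cm depth; sow weed and rice seed; grow 14 days at 25–30 °C; spray diluted emulsion over the leaves; rate effect after 3 weeks.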

[4] = system: Leptochloa chinensis; experiment: Test Example 3: herbicidal effect by foliage application, Wagner pot (symbol D); settings: application herbicide amount 320 g/ha
How it was run: as §2

[5] = system: Cyperus difformis; experiment: Test Example 3: herbicidal effect by foliage application, Wagner pot (symbol E); settings: application herbicide amount 320 g/ha
How it was run: as §2

[6] = system: Digitaria ciliaris; experiment: Test Example 4: herbicidal effect by soil treatment (symbol F); settings: application herbicide amount 320 g/ha
How it was run: (§3)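 Seeds were sown in sterilized diluvial soil, covered with about 1.5 cm of soil, and the soil surface was sprayed with a water-diluted emulsion of the compound at a predetermined rate. Plants grew in a greenhouse at 25° C. to 30° C.; effects were scored visually 3 weeks after application.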

[7] = system: Setaria viridis; experiment: Test Example 4: herbicidal effect by soil treatment (symbol G); settings: application herbicide amount 320 g/ha
How it was run: as §3

[8] = system: Alopecurus myosuroides; experiment: Test Example 4: herbicidal effect by soil treatment (symbol J); settings: application herbicide amount 320 g/ha
How it was run: as §3

[9] = system: Abutilon theophrasti; experiment: Test Example 4: herbicidal effect by soil treatment (symbol M); settings: application herbicide amount 320 g/ha
How it was run: as §3

[10] = system: Stellaria media; experiment: Test Example 4: herbicidal effect by soil treatment (symbol P); settings: application herbicide amount 320 g/ha
How it was run: as §3

[11] = system: Veronica persica; experiment: Test Example 4: herbicidal effect by soil treatment (symbol R); settings: application herbicide amount 320 g/ha
How it was run: as §3

[12] = system: corn; experiment: Test Example 4: effect on crop by soil treatment (symbol c); settings: application herbicide amount 320 g/ha
How it was run: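 Steps: fill box with sterilized diluvial soil; sow seed spot-like; cover with ~1.5 cm soil; grow in greenhouse (25° C. to 30° C.).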

[13] = system: Stellaria media; experiment: Test Example 5: herbicidal effect by foliage application, plastic box (symbol P); settings: 320 g/ha, 3 weeks after application
How it was run: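 After sowing into sterilized diluvial soil and growing two weeks under glass at 25° C. to 30° C., seedlings receive a uniform foliar spray of diluted emulsion. Damage is judged visually three weeks on.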

[14] = system: wheat; experiment: Test Example 5: effect on crop by foliage application, plastic box (symbol e); settings: 320 g/ha, 3 weeks after application
How it was run: (§4)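 In a plastic box 7 cm deep filled with sterilized diluvial soil, seeds of crops and weeds such as Digitaria ciliaris, Avena fatua and Amaranthus retroflexus are sown in spots and covered with about 1.5 cm of soil before greenhouse growth at 25–30° C.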

[15] = system: rapeseed; experiment: Test Example 5: effect on crop by foliage application, plastic box (symbol g); settings: 320 g/ha, 3 weeks after application
How it was run: as §4

SMILES	Herbicidal effect grade, A: Echinochloa oryzacola Vasing. [1]	Herbicidal effect grade, C: Monochoria vaginalis [2]	herbicidal effect on H (Echinochloa crus-galli var. crus-galli), grade 0-5 [3]	herbicidal effect on D (Leptochloa chinensis), grade 0-5 [4]	herbicidal effect on E, grade 0-5 [5]	Herbicidal effect grade, F: Digitaria ciliaris [6]	Herbicidal effect grade, G: Setaria viridis [7]	Herbicidal effect grade, J: Alopecurus myosuroides [8]	Herbicidal effect grade, M: Abutilon theophrasti [9]	Herbicidal effect grade, P: Stellaria media [10]	Herbicidal effect grade, R: Veronica persica [11]	Effect on crop grade, c: corn [12]	P: Stellaria media, herbicidal effect (criteria of Test Example 1) [13]	e: wheat, effect on crop (criteria of Test Example 1) [14]	g: rapeseed, effect on crop (criteria of Test Example 1) [15]
CON=C(C)CC1CC(OC(=O)C(C)CSC)=C(c2c(C)cc(-c3ccc(Cl)cc3)cc2C)C1=O (stereo not drawn) [6-086]	4 (Herbicidal ratio of 70% or higher and lower than 90%)	3 (Herbicidal ratio of 40% or higher and lower than 70%)	5 (Herbicidal ratio of 90% or more (almost completely withered))	5 (Herbicidal ratio of 90% or more (almost completely withered))	5 (Herbicidal ratio of 90% or more (almost completely withered))	5 (Herbicidal ratio of 90% or more (almost completely withered))	5 (Herbicidal ratio of 90% or more (almost completely withered))	5 (Herbicidal ratio of 90% or more (almost completely withered))	0 (Herbicidal ratio of 5% or lower (almost no effect))	4 (Herbicidal ratio of 70% or higher and lower than 90%)	4 (Herbicidal ratio of 70% or higher and lower than 90%)	0 (Herbicidal ratio of 5% or lower (almost no effect))	4 (Herbicidal ratio of 70% or higher and lower than 90%)	5 (Herbicidal ratio of 90% or more (almost completely withered))	4 (Herbicidal ratio of 70% or higher and lower than 90%)
CON=C(C)CC1CC(O)=C(c2c(C)cc(-c3cc(Cl)cc(Cl)c3)cc2C)C1=O (stereo not drawn) [6-087]	2 (Herbicidal ratio of 20% or higher and lower than 40%)	0 (Herbicidal ratio of 5% or lower (almost no effect))	5 (Herbicidal ratio of 90% or more (almost completely withered))	5 (Herbicidal ratio of 90% or more (almost completely withered))	0 (Herbicidal ratio of 5% or lower (almost no effect))	5 (Herbicidal ratio of 90% or more (almost completely withered))	5 (Herbicidal ratio of 90% or more (almost completely withered))	4 (Herbicidal ratio of 70% or higher and lower than 90%)	0 (Herbicidal ratio of 5% or lower (almost no effect))	0 (Herbicidal ratio of 5% or lower (almost no effect))	2 (Herbicidal ratio of 20% or higher and lower than 40%)	0 (Herbicidal ratio of 5% or lower (almost no effect))	1 (Herbicidal ratio of 5% or higher and lower than 20%)	1 (Herbicidal ratio of 5% or higher and lower than 20%)	4 (Herbicidal ratio of 70% or higher and lower than 90%)
CON=C(C)CC1CC(O)=C(c2c(C)cc(-c3ccc(Cl)cc3Cl)cc2C)C1=O (stereo not drawn) [6-088]	4 (Herbicidal ratio of 70% or higher and lower than 90%)	0 (Herbicidal ratio of 5% or lower (almost no effect))	5 (Herbicidal ratio of 90% or more (almost completely withered))	5 (Herbicidal ratio of 90% or more (almost completely withered))	5 (Herbicidal ratio of 90% or more (almost completely withered))	5 (Herbicidal ratio of 90% or more (almost completely withered))	5 (Herbicidal ratio of 90% or more (almost completely withered))	5 (Herbicidal ratio of 90% or more (almost completely withered))	3 (Herbicidal ratio of 40% or higher and lower than 70%)	5 (Herbicidal ratio of 90% or more (almost completely withered))	4 (Herbicidal ratio of 70% or higher and lower than 90%)	0 (Herbicidal ratio of 5% or lower (almost no effect))	4 (Herbicidal ratio of 70% or higher and lower than 90%)	4 (Herbicidal ratio of 70% or higher and lower than 90%)	4 (Herbicidal ratio of 70% or higher and lower than 90%)
CON=C(C)CC1CC(OC(=O)N2CCOCC2)=C(c2c(C)cc(-c3ccc(Cl)cc3F)cc2C)C1=O (stereo not drawn) [6-089]	5 (Herbicidal ratio of 90% or more (almost completely withered))	3 (Herbicidal ratio of 40% or higher and lower than 70%)	5 (Herbicidal ratio of 90% or more (almost completely withered))	5 (Herbicidal ratio of 90% or more (almost completely withered))	4 (Herbicidal ratio of 70% or higher and lower than 90%)	5 (Herbicidal ratio of 90% or more (almost completely withered))	4 (Herbicidal ratio of 70% or higher and lower than 90%)	2 (Herbicidal ratio of 20% or higher and lower than 40%)	0 (Herbicidal ratio of 5% or lower (almost no effect))	0 (Herbicidal ratio of 5% or lower (almost no effect))	0 (Herbicidal ratio of 5% or lower (almost no effect))	0 (Herbicidal ratio of 5% or lower (almost no effect))	4 (Herbicidal ratio of 70% or higher and lower than 90%)	4 (Herbicidal ratio of 70% or higher and lower than 90%)	4 (Herbicidal ratio of 70% or higher and lower than 90%)
CON=C(C)CC1CC(OC(=O)COc2ccccc2)=C(c2c(C)cc(C)cc2OC)C1=O (stereo not drawn) [6-091]	5 (Herbicidal ratio of 90% or more (almost completely withered))	3 (Herbicidal ratio of 40% or higher and lower than 70%)	5 (Herbicidal ratio of 90% or more (almost completely withered))	5 (Herbicidal ratio of 90% or more (almost completely withered))	5 (Herbicidal ratio of 90% or more (almost completely withered))	5 (Herbicidal ratio of 90% or more (almost completely withered))	5 (Herbicidal ratio of 90% or more (almost completely withered))	5 (Herbicidal ratio of 90% or more (almost completely withered))	5 (Herbicidal ratio of 90% or more (almost completely withered))	4 (Herbicidal ratio of 70% or higher and lower than 90%)	4 (Herbicidal ratio of 70% or higher and lower than 90%)	5 (Herbicidal ratio of 90% or more (almost completely withered))	4 (Herbicidal ratio of 70% or higher and lower than 90%)	5 (Herbicidal ratio of 90% or more (almost completely withered))	5 (Herbicidal ratio of 90% or more (almost completely withered))
